14 compounds from PubChem BioAssay (NCI) can be followed below.

Assay in all cases: inhibition of tumour cell growth, NCI panel, 48 h
Assay [1] deals with HOP-62 NSCLC.
The subject of assay [2] is HS 578T breast.
Assay [3] relates to COLO 205 colon.
Assay [4] relates to NCI-H522 lung.
Assay [5] concerns SN12C renal.
The subject of assay [6] is TK-10 renal.
Assay [7] deals with UACC-62 melanoma.
The subject of assay [8] is LOX IMVI melanoma.
For assay [9], the system named is OVCAR-5 ovarian.
Assay [10] has as its system CAKI-1 renal.

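Five compound concentrations were applied to cells in 96-well plates for 48 hours; endpoints were derived by simple linear interpolation of the resulting dose-response curve. GI50 = concentration required for 50% inhibition of growth. At the TGI there is no net growth.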 Where only a bound is given, the exact number is not on record here.

Take `COc1ccc(N2C=Nn3c(nc4sc(C)c(C)c4c3=O)C2)cc1`: the TGI in assay [1], in assay [2], in assay [3], in assay [4], in assay [5] and in assay [6] was greater than 100 µM each time. In addition, the TGI in assay [7], in [8], in [9] and in assay [10] was greater than 100 µM throughout.
Consider `Cc1ccc([N+](=O)[O-])cc1S(=O)(=O)Nc1ccc(C2=NN(c3ccc([N+](=O)[O-])cc3[N+](=O)[O-])C(c3ccccc3)C2)cc1` (configuration not stated), for which the TGI in assay [1] is 33 µM; in assay [2] it was 72 µM; in assay [3] it was 37.4 µM; in assay [4], 25.9 µM; in assay [5], 33.2 µM; in assay [6] it was 61.8 µM. The figures for the TGI in [8], in assay [9] and in [10] were 32.2 µM, 50.1 µM and greater than 100 µM, respectively.
As to `CCC1C(=O)C[C@H]2[C@@H]3C(O)CC4=CC(=O)CC[C@]4(C)[C@H]3CC[C@]12C` (some centres not stated), the TGI in [1], in assay [2], in assay [3], in [4], in assay [5] and in [6] was greater than 50 µM each time. The TGI in assay [7], in [8], in assay [9] and in assay [10] was greater than 50 µM in each case.
On to `COC(=O)CCCc1ccc2c(c1)CC1(C2)Cc2cc3c(cc2C1)CCCC3`, for which the TGI in assay [1] is greater than 100 µM; in assay [2] it was 90.9 µM; in [3] it was 53 µM; in [4] it was 84 µM; in assay [5] it was greater than 100 µM; in [6], greater than 100 µM. In addition, the TGI in [7] is 67 µM; in [8], 72.1 µM; in assay [9], greater than 100 µM.
As for `COC(=O)/C=C/c1ccccc1N=[S@](C)(=O)c1ccc(C)cc1`, the TGI is greater than 100 µM in assay [1]; 64.6 µM in assay [2]; 26.7 µM in assay [3]; 7.99 µM in assay [4]; greater than 100 µM in assay [5]; 71.9 µM in [6]. The TGI in [7], in [8], in [9] and in assay [10] was greater than 100 µM in each case.
With `CC1=NOC2(C1)/C(=N/O)CCC/C2=N\O` (configuration not stated), the TGI in assay [1], in [2], in assay [3], in [4], in assay [5] and in assay [6] was greater than 100 µM in each case. Besides, the TGI in assay [7], in assay [8], in [9] and in [10] was greater than 100 µM each time.
Consider `CCCCOC(=O)C(=O)C(CCC(=O)c1ccc(C)cc1)C(=O)C=C(C)C` (configuration not stated), for which the TGI in assay [1], in assay [2], in [4], in assay [5], in assay [6] and in assay [7] was greater than 100 µM in each case. For the same compound, the TGI in assay [8], in [9] and in assay [10] was greater than 100 µM each time.
Turning to `CC(C)(CO)CNc1cc(=O)[nH]c(N)n1`, the TGI in assay [1], in assay [2], in [3], in [4], in assay [5] and in assay [7] was greater than 100 µM in each case. In addition, the TGI in assay [8], in [9] and in [10] was greater than 100 µM each time.
On to `COC(=O)c1cc(C)ccc1CC(Cc1cccc(C)c1)C(=O)OC` (configuration not stated), for which the TGI in assay [1], in assay [2], in [3], in assay [4], in [5] and in assay [6] was greater than 100 µM in each case. Also, the TGI in [8], in assay [9] and in assay [10] was greater than 100 µM in each case.
Consider `Cc1ccc(S(=O)(=O)N/C(=C\C=C\c2ccccc2)C(=O)C(C)(C)C)cc1`, for which the TGI is 44 µM in assay [1]; greater than 100 µM in [2]; greater than 100 µM in assay [3]; greater than 100 µM in assay [4]; greater than 100 µM in assay [5]; greater than 100 µM in [6]. The TGI in [8], in [9] and in assay [10] was greater than 100 µM in each case.
Regarding `Cc1cc2c(cc1Cl)Sc1nnc(Nc3ccccc3)n1S2(=O)=O`, the TGI in assay [1] is 15 µM; in assay [2], 12.6 µM; in [4], 14.2 µM; in assay [6], 43.6 µM; in [8] it was 18.7 µM; in assay [9] it was greater than 100 µM. Further, the TGI in assay [10] stood at 53.8 µM.
Regarding `CC(=O)O[C@H]1CC[C@@]2(C)C(=CC[C@@H]3[C@@H]2CC[C@]2(C)C(c4cccnc4)=CC[C@@H]32)C1`, the GI50 in [1] was 6.24 µM; in assay [2] it was 3.38 µM; in assay [3], 5.1 µM; in [4] it was 38.5 µM; in assay [5] it was 17.2 µM; in [6], 29.8 µM. The GI50 was 6.49 µM in assay [8], 18.7 µM in [9] and 8.38 µM in assay [10]. Moreover, the TGI in assay [1] is greater than 100 µM; in assay [2], 71.3 µM; in assay [3] it was greater than 100 µM; in assay [4], greater than 100 µM; in [5], greater than 100 µM; in [6], greater than 100 µM. The TGI in [8], in [9] and in [10] was greater than 100 µM in each case.
`N#CC1=C2Sc3ccccc3N2[C@H](c2ccccc2)[C@H]2COC(=O)[C@@H]12`: the TGI in assay [1] is greater than 100 µM; in assay [2] it was greater than 100 µM; in assay [3], greater than 100 µM; in assay [4] it was 27 µM; in assay [6], greater than 100 µM; in assay [7] it was greater than 100 µM. In addition, the TGI is 91.6 µM in assay [8], greater than 100 µM in [9] and 52.8 µM in assay [10].
For `CSc1nc(NC2CCCC2)c2cc[nH]c2n1`, the TGI in assay [1], in assay [2], in [3], in assay [4], in assay [5] and in assay [6] was greater than 100 µM in each case. The TGI in [7], in [8] and in assay [10] was greater than 100 µM each time.
